According to patent US4088772A, “Methanodibenzocycloheptapyrroles” (E. I. Du Pont de Nemours and Company, priority 1975, dated 1978):
Where two headings read alike, the source gives them in different places.

Key:
in vivo = settings: mouse, in vivo, po
female white mice = test: animal or person; settings: for ED50: Mus musculus, po
[1] = test system: phenylquinone-induced writhing; test: Phenylquinone writhing test (analgesia); assay type: in vivo, mouse (Carworth CF1 S female); settings: for ED50: Mus musculus
From the text: This mouse test is predictive of analgesic response in humans. [E. Siegmund, R. Cadmus and G. Lee, Proc. Soc.
ED50 values were obtained graphically from the data.

[2] = read-out: Reflexes Grip ED50, Table 1, oral, mice
[3] = read-out: Catatonia ED50, Table 1, oral, mice
[4] = read-out: Exploratory Loss Visual ED50, Table 1, oral, mice
[5] = read-out: Muscle Tone ED50, Table 1, oral, mice
[6] = read-out: Ptosis ED50, Table 1, oral, mice
[7] = read-out: Reflexes Lift ED50, Table 1, oral, mice
[8] = read-out: Reflexes Pinna ED50, Table 1, oral, mice

## c1ccc2c(c1)C1CC3(CN(CC4CCCC4)CC23)c2ccccc21 (single isomer, unassigned; (-)) [(-)-Cyclopentylmethyl, 2-Cyclopentylmethyl-2,3,8,12b-tetrahydro-trans-1H,-3a,8-methanodibenzo[3,4:6,7]cyclohepta[1,2-c]pyrrole]
In vivo
  ED50: > 324 mg/kg
  LD50 at 24 h: > 324 mg/kg
Female white mice; [2]
  ED50: 200 mg/kg
Female white mice; Table 1, oral, mice
  Catatonia ED50: 7 mg/kg
  Exploratory Loss Visual ED50: < 4 mg/kg
  Muscle Tone ED50: < 4 mg/kg
  Ptosis ED50: < 4 mg/kg
  Reflexes Lift ED50: 4 mg/kg
  Reflexes Pinna ED50: 4 mg/kg
[1]; Table 1, oral, mice
  Phenylquinone Analgesia ED50: 1.2 mg/kg

## [O-][N+]1(CC2CCCC2)CC2c3ccccc3C3CC2(C1)c1ccccc13 (stereo not drawn) [Cyclopentylmethyl-N-oxide, N-Oxide of 2-cyclopentylmethyl-2,3,8,12b-tetrahydro-1H-3a,8-methanodibenzo[3,4:6,7]cyclohepta[1,2-c]-pyrrole]
In vivo
  ED50: > 324 mg/kg
  LD50 at 24 h: > 324 mg/kg
Female white mice; [3]
  ED50: 36 mg/kg
Female white mice; [4]
  ED50: 12 mg/kg
Female white mice; [5]
  ED50: 12 mg/kg
Female white mice; [6]
  ED50: ≤ 4 mg/kg
Female white mice; [2]
  ED50: > 324 mg/kg
Female white mice; [7]
  ED50: 20 mg/kg
Female white mice; [8]
  ED50: 7 mg/kg
[1]; po, Table 1, mice
  ED50: 24 mg/kg

## CN1CC2c3ccccc3C3CC2(C1)c1ccccc13 (stereo not drawn) [Example 1, 2-Methyl-2,3,8,12b-tetrahydro-1H-3a,8-methanodibenzo[3,4:6,7]cyclohepta[1,2-c]pyrrole]
In vivo
  LD50 at 24 h: 150 mg/kg
In vivo; Tremors ED50, Table 1, mice
  ED50: 30 mg/kg
Female white mice; [3]
  ED50: 30 mg/kg
Female white mice; [4]
  ED50: 50 mg/kg
Female white mice; [5]
  ED50: 100 mg/kg
Female white mice; [6]
  ED50: 50 mg/kg
Female white mice; [2]
  ED50: 150 mg/kg
Female white mice; [7]
  ED50: 30 mg/kg
Female white mice; [8]
  ED50: 30 mg/kg
[1]; Table 1, oral, mice
  ED50: 5.1 mg/kg

## c1ccc2c(c1)C1CC3(CN(CC4CC4)CC23)c2ccccc21 (stereo not drawn) [Example 6, 2-Cyclopropylmethyl-2,3,8,12b-tetrahydro-1H-3a,8-methanodibenzo[3,4:6,7]cyclohepta[1,2-c]pyrrole]
In vivo
  LD50 at 24 h: 300 mg/kg
In vivo; Tremors ED50, Table 1, mice
  ED50: 100 mg/kg
Female white mice; [3]
  ED50: 20 mg/kg
Female white mice; [4]
  ED50: 20 mg/kg
Female white mice; [5]
  ED50: 12 mg/kg
Female white mice; [6]
  ED50: 20 mg/kg
Female white mice; [2]
  ED50: 100 mg/kg
Female white mice; [7]
  ED50: 20 mg/kg
Female white mice; [8]
  ED50: 7 mg/kg
[1]; Table 1, oral, mice
  ED50: 4.5 mg/kg

## C=CCN1CC2c3ccccc3C3CC2(C1)c1ccccc13 (stereo not drawn) [Example 10, 2-Allyl-2,3,8,12b-tetrahydro-1H-3a,8-methanodibenzo-[3,4:6,7]cyclohepta[1,2-c]pyrrole]
In vivo
  LD50 at 24 h: > 324 mg/kg
In vivo; Tremors ED50, Table 1, mice
  ED50: 187 mg/kg
Female white mice; [3]
  ED50: 5 mg/kg
Female white mice; [4]
  ED50: 4.5 mg/kg
Female white mice; [5]
  ED50: 3.2 mg/kg
Female white mice; [6]
  ED50: < 3 mg/kg
Female white mice; [2]
  ED50: 150 mg/kg
Female white mice; [7]
  ED50: 6 mg/kg
Female white mice; [8]
  ED50: 4 mg/kg
[1]; Table 1, oral, mice
  ED50: 1.9 mg/kg

## CCOC(=O)CCCN1CC2c3ccccc3C3CC2(C1)c1ccccc13 (stereo not drawn) [Example 11, Ethyl 2,3,8,12b-Tetrahydro-1H-3a,8-methanodibenzo-[3,4:6,7]cyclohepta[1,2-c]pyrrole-2-butyrate]
In vivo
  ED50: > 324 mg/kg
  LD50 at 24 h: > 324 mg/kg
Female white mice; [3]
  ED50: 100 mg/kg
Female white mice; [4]
  ED50: 100 mg/kg
Female white mice; [5]
  ED50: 200 mg/kg
Female white mice; [6]
  ED50: 100 mg/kg
Female white mice; [2]
  ED50: > 324 mg/kg
Female white mice; [7]
  ED50: > 324 mg/kg
Female white mice; [8]
  ED50: 100 mg/kg
[1]; po, Table 1, mice
  ED50: 26 mg/kg

## CCN1CC2c3ccccc3C3CC2(C1)c1ccccc13 (stereo not drawn) [Example 12, 2-Ethyl-2,3,8,12b-tetrahydro-1H-3a,8-methanodibenzo[3,4:6,7]cyclohepta[1,2-c]pyrrole]
In vivo
  LD50 at 24 h: 200 mg/kg
In vivo; Tremors ED50, Table 1, mice
  ED50: 200 mg/kg
Female white mice; [3]
  ED50: 12 mg/kg
Female white mice; [4]
  ED50: 20 mg/kg
Female white mice; [5]
  ED50: 36 mg/kg
Female white mice; [6]
  ED50: 12 mg/kg
Female white mice; [2]
  ED50: 100 mg/kg
Female white mice; [7]
  ED50: 12 mg/kg
Female white mice; [8]
  ED50: 12 mg/kg
[1]; Table 1, oral, mice
  ED50: 4.3 mg/kg

## CCCCN1CC2c3ccccc3C3CC2(C1)c1ccccc13 (stereo not drawn) [Example 13, 2-n-Butyl-2,3,8,12b-tetrahydro-1H-3a,8-methanodibenzo[3,4:6,7]cyclohepta[1,2-c]pyrrole]
In vivo
  LD50 at 24 h: > 324 mg/kg
In vivo; Tremors ED50, Table 1, mice
  ED50: 300 mg/kg
Female white mice; [3]
  ED50: 12 mg/kg
Female white mice; [4]
  ED50: 12 mg/kg
Female white mice; [5]
  ED50: 12 mg/kg
Female white mice; [6]
  ED50: 7 mg/kg
Female white mice; [2]
  ED50: 200 mg/kg
Female white mice; [7]
  ED50: 7 mg/kg
Female white mice; [8]
  ED50: ≤ 4 mg/kg
[1]; Table 1, oral, mice
  ED50: 10.5 mg/kg

## CCCCCCCCN1CC2c3ccccc3C3CC2(C1)c1ccccc13 (stereo not drawn) [Example 16, 2-n-Octyl-2,3,8,12b-tetrahydro-1H-3a,8-methanodibenzo[3,4:6,7]cyclohepta[1,2-c]pyrrole]
In vivo
  ED50: > 324 mg/kg
  LD50 at 24 h: > 324 mg/kg
Female white mice; [4]
  ED50: 20 mg/kg
Female white mice; [2]
  ED50: > 324 mg/kg
Female white mice; [7]
  ED50: 20 mg/kg
Female white mice; [8]
  ED50: 20 mg/kg
[1]; po, Table 1, mice
  ED50: 12 mg/kg

## CCC(CC)CN1CC2c3ccccc3C3CC2(C1)c1ccccc13 (stereo not drawn) [Example 17, 2-(2-Ethylbutyl)-2,3,8,12b-tetrahydro-1H-3a,8-methanodibenzo[3,4:6,7]cyclohepta[1,2-c]pyrrole]
In vivo
  ED50: > 324 mg/kg
  LD50 at 24 h: > 324 mg/kg
Female white mice; [3]
  ED50: 36 mg/kg
Female white mice; [4]
  ED50: 200 mg/kg
Female white mice; [5]
  ED50: 100 mg/kg
Female white mice; [6]
  ED50: 100 mg/kg
Female white mice; [2]
  ED50: > 324 mg/kg
Female white mice; [7]
  ED50: 200 mg/kg
Female white mice; [8]
  ED50: 200 mg/kg
[1]; po, Table 1, mice
  ED50: 48 mg/kg

## C#CCN1CC2c3ccccc3C3CC2(C1)c1ccccc13 (stereo not drawn) [Example 18, 2-Propargyl-2,3,8,12b-tetrahydro-1H-3a,8-methanodibenzo[3,4:6,7]cyclohepta[1,2-c]pyrrole]
In vivo
  LD50 at 24 h: > 324 mg/kg
In vivo; Tremors ED50, Table 1, mice
  ED50: > 324 mg/kg
Female white mice; [3]
  ED50: 100 mg/kg
Female white mice; [4]
  ED50: 200 mg/kg
Female white mice; [5]
  ED50: 300 mg/kg
Female white mice; [6]
  ED50: 200 mg/kg
Female white mice; [2]
  ED50: > 324 mg/kg
Female white mice; [7]
  ED50: 200 mg/kg
Female white mice; [8]
  ED50: > 324 mg/kg
[1]; Table 1, oral, mice
  ED50: > 135 mg/kg

## C=C1CC(CN2CC3c4ccccc4C4CC3(C2)c2ccccc24)C1 (stereo not drawn) [Example 20, 2-(3-Methylenecyclobutylmethyl)-2,3,8,12b-tetrahydro-1H-3a,8-methanodibenzo[3,4:6,7]cyclohepta[1,2-c]pyrrole]
In vivo
  ED50: > 324 mg/kg
  LD50 at 24 h: > 324 mg/kg
Female white mice; [3]
  ED50: 13 mg/kg
Female white mice; [4]
  ED50: 21 mg/kg
Female white mice; [5]
  ED50: 15 mg/kg
Female white mice; [6]
  ED50: 11 mg/kg
Female white mice; [2]
  ED50: 362 mg/kg
Female white mice; [7]
  ED50: 21 mg/kg
Female white mice; [8]
  ED50: 24 mg/kg
[1]; po, Table 1, mice
  ED50: 8.2 mg/kg

## C1=C(CN2CC3c4ccccc4C4CC3(C2)c2ccccc24)CCC1 (stereo not drawn) [Example 21, 2-(1-Cyclopentenylmethyl)-2,3,8,12b-tetrahydro-1H-3a,8-methanodibenzo[3,4:6,7]cyclohepta[1,2-c]pyrrole]
In vivo
  ED50: > 324 mg/kg
  LD50 at 24 h: > 324 mg/kg
Female white mice; [3]
  ED50: 20 mg/kg
Female white mice; [4]
  ED50: 7 mg/kg
Female white mice; [5]
  ED50: 36 mg/kg
Female white mice; [6]
  ED50: 7 mg/kg
Female white mice; [2]
  ED50: 300 mg/kg
Female white mice; [7]
  ED50: 36 mg/kg
Female white mice; [8]
  ED50: 20 mg/kg
[1]; po, Table 1, mice
  ED50: 2.9 mg/kg

## c1ccc2c(c1)C1CC3(CN(CCC4CCCC4)CC23)c2ccccc21 (stereo not drawn) [Example 22, 2-(2-Cyclopentylethyl)-2,3,8,12b-tetrahydro-1H-3a,8-methanodibenzo[3,4:6,7]cyclohepta[1,2-c]pyrrole]
In vivo
  ED50: > 324 mg/kg
  LD50 at 24 h: > 324 mg/kg
Female white mice; [3]
  ED50: 18 mg/kg
Female white mice; [4]
  ED50: 32 mg/kg
Female white mice; [5]
  ED50: 3.6 mg/kg
Female white mice; read-out: Ptosis ED50, Table 1, Extrapolated value
  ED50: 3 mg/kg
Female white mice; [2]
  ED50: 265 mg/kg
Female white mice; [7]
  ED50: 17 mg/kg
Female white mice; [8]
  ED50: 11 mg/kg
[1]; po, Table 1, mice
  ED50: 10 mg/kg

## C1=CC(CCN2CC3c4ccccc4C4CC3(C2)c2ccccc24)CC1 (stereo not drawn) [Example 23, 2-(2-Cyclopent-2-enylethyl)-2,3,8,12b-tetrahydro-1H-3a,8-methanodibenzo[3,4:6,7]cyclohepta[1,2-c]pyrrole]
In vivo
  ED50: > 324 mg/kg
  LD50 at 24 h: > 324 mg/kg
Female white mice; [3]
  ED50: 37 mg/kg
Female white mice; [4]
  ED50: 57 mg/kg
Female white mice; [5]
  ED50: 37 mg/kg
Female white mice; [6]
  ED50: 46 mg/kg
Female white mice; [2]
  ED50: 265 mg/kg
Female white mice; [7]
  ED50: 88 mg/kg
Female white mice; [8]
  ED50: 62 mg/kg
[1]; po, Table 1, mice
  ED50: 15 mg/kg
